According to patent US20090111104A1, “Method for Monitoring Hydrolytic Activity” (Fluorotechnics Pty Limited, priority 2005, published 2009):

Assays:
BSA [1] = molecular target: T1, BSA (Bos taurus, UniProt P02769); experiment: Real-time monitoring of chymotrypsin digestion of BSA using epicocconone; format: biochemical, bovine; conditions: bicine pH 7.8, 30° C., chymotrypsin 1:30
T1 construct: purchased Sigma-Aldrich A3059
Protocol: • 1. Chymotrypsin digestion was carried out in bicine buffer. • 2. BSA was prepared in 10 mg/mL in 50 mM bicine buffer. • 3. One hundred microliter of the BSA sample was used for chymotrypsin digestion.
• 1. The BSA sample (100 μL) was reduced by adding 5 μL of DTT stock and heating (80° C.) for 10 min. • 2. The sample was alkylated by adding the iodoacetamide (4 μL) stock at room temperature for 45 min-1 hr. • 3. The remaining iodoacetamide of the sample was neutralized by adding DTT (20 μL) and incubating room temp for 45 min-1 hr.
• 1. The reduced and denatured BSA sample from 2.2 was diluted 10-fold in 50 mM bicine buffer (25 μL+225 μL bicine buffer). BSA molar concentration was calculated to be approx. 6 μM. • 2. One hundred microliter of the sample (step 1) was prepared in duplicates and added to a microtiter plate. Controls included a bicine-based digestion buffer, a chymotrypsin sample only and an undigested BSA sample (no chymotrypsin). • 3. Epicocconone stock solution was diluted 100-fold in 50 mM bicine and 100 μL added to each well. The final concentration epicocconone was 12 μM. At this point in time, it required approximately 10 min to get appropriate FluoStar setting conditions. • 4. 2 μL of CaCl2 was added • 5. […] Fluorescence development was monitored in real time every 2 minutes up to 6 hours using FluoStar (Ex/Em=540/630−12). […]

BSA [2] = molecular target: T1, BSA; experiment: SDS-PAGE validation of BSA proteolysis in the presence of different fluorophores (Example 7); format: biochemical, bovine; conditions: after 120 minutes
Source text: The normalised data were used for Prism analysis for obtaining the rate constants. In each case, the protein with fluorophore (open squares) is fitted to a single phase exponential decay (Y=span*exp(−kX)+plateau) and the value for k used as the fixed value for k1 in a two phase exponential decay (Y=span1*exp(−k1X)+span2*exp(−k2X)+plateau) for the protein plus papain (open circles). Through this method it was possible to measure the rate constants for hydrolysis and predict the time point for complete hydrolysis. […] It can be seen from this figure that the bands associated with the protein have disappeared after 120 minutes and that only a faint band for residual papain or trypsin can be seen. In some cases there are also some larger peptide fragments remaining after digestion that are resistant to further hydrolysis.

T1 sequence (P02769 25-607): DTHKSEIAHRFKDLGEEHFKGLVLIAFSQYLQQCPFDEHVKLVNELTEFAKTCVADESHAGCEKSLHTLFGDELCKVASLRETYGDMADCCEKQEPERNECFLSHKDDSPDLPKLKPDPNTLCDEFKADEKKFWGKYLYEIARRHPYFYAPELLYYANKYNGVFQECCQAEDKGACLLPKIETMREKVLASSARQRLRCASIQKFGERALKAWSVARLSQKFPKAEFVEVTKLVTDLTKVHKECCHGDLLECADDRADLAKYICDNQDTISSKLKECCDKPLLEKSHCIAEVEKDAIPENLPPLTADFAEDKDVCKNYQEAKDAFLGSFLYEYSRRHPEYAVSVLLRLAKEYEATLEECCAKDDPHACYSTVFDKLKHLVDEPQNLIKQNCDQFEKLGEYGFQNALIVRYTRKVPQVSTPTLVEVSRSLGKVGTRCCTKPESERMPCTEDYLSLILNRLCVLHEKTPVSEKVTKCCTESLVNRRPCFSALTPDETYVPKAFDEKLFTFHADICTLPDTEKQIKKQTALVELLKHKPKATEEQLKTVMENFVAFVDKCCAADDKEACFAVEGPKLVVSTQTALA

For chymotrypsin, the “apparent first order rate constant” value (BSA [1]) was 0.0447 min⁻¹.

B1: papain: Non-specific cysteine protease, Sigma-Aldrich P4762 (protein, UniProt P00784 134-345, looked up)
Papain: IPEYVDWRQKGAVTPVKNQGSCGSCWAFSAVVTIEGIIKIRTGNLNEYSEQELLDCDRRSYGCNGGYPWSALQLVAQYGIHYRNTYPYEGVQRYCRSREKGPYAAKTDGVRQVQPYNEGALLYSIANQPVSVVLEAAGKDFQLYRGGIFVGPCGNKVDHAVAAVGYGPNYILIKNSWGTGWGENGYIRIKRGTGNSYGVCGLYTSSFYPVKN
B1 was tested, and the “digestion of BSA by SDS-PAGE” value (BSA [2]) was “complete digestion”.
